# From US6537948B1, “Uracil compounds and use thereof” (Sumitomo Chemical Company, Limited, priority 2000, dated 2003)
# Experiments:
# [1] = test system: giant foxtail (Setaria faberi); test: Test Example 6: foliar spray, herbicidal activity index; format: in vivo; design: key: “0” means that there was no or little difference in the degree of germination or growth between the treated and the untreated tested plants at the time of examination; “10” means that the test plants died complete or their germination or growth was completely inhibited; conditions: 4 days after application, index 0-10
# Experimental: (§1) A plastic pot having longer side of 27 cm, shorter side of 19 cm and depth of 7 cm was filled with soil and then seeded with large crabgrass (Digitaria sanguinalis) and giant foxtail (Setaria faberi). Nine days after, barnyardgrass (Echinochloa crus-galli) was seeded therein and grown for 15 days in a greenhouse. Further, a plastic pot having longer side of 16.5 cm, shorter side of 12 cm and depth of 7 cm was filled with soil and then seeded with wild oat (Avena fatua), and grown for 18 days in a greenhouse. Then, each of the present compound 1-67 and A was formulated into an emulsifiable concentrate according to Formulation Example 2 and then diluted to the prescribed amount with water containing a spreading agent and the dilution was uniformly sprayed over the foliage of the test plants with a sprayer at a rate of 1000liters per hectare. After the application, the test plants were grown in the greenhouse for 4 days, and the herbicidal activity was examined. (In the Table 12, the test plants are shown as follows.
# (§2) Barnyardgrass: B, Large crabgrass: LC, Giant foxtail: GF, Wild oat: W
# [2] = test system: barnyardgrass (Echinochloa crus-galli); test: as above; format: in vivo; design: key: “0” means that there was no or little difference in the degree of germination or growth between the treated and the untreated tested plants at the time of examination; “10” means that the test plants died complete or their germination or growth was completely inhibited; conditions: 4 days after application, index 0-10
# Experimental: as §1, §2
# [3] = test system: large crabgrass (Digitaria sanguinalis); test: as above; format: in vivo; conditions: 4 days after application, index 0-10
# Experimental: as §1, §2
# wild oat (Avena fatua) [4] = test: as above; format: in vivo; conditions: 4 days after application, index 0-10
# Experimental: as §1, §2
# [5] = test system: velvetleaf (Abutilon theophrasti); test: Test Example 1: foliar treatment of field; format: in vivo; conditions: foliar spray, dosage 125 g/ha, 16 days after application
# Experimental: (§3) A cylindrical plastic pot having a diameter of 10 cm and a depth of 10 cm was filled with soil and then seeded with ivyleaf morningglory (Ipomoea hederacea) and velvetleaf (Abutilon theophrasti). These test plants were grown in a greenhouse for 10 days. Then, each of compounds 1-2, 1-42, 1-45, 1-48, 2-2, 2-7, 2-42, 2-45, 3-2, 3-12, 4-7, 4-85, 5-12-R, 5-12-S, 5-17, 6-2, 7-2, 7-6, 7-8, 7-12, 7-48, 7-50, 7-84, 7-118, 7-119, 7-125, 9-7, 9-27 and 9-45 was formulated into an emulsifiable concentrate according to Formulation Example 2 and then diluted to the prescribed amount with water containing a spreading agent and the dilution was uniformly sprayed over the foliage of the test plants with a sprayer at a rate of 1000 liters per hectare. After the application, the test plants were grown in the greenhouse for 16 days, and the herbicidal activity was determined.
# [6] = test system: ivyleaf morningglory (Ipomoea hederacea); test: Test Example 1: foliar treatment of field; format: in vivo; conditions: foliar spray, dosage 125 g/ha, 16 days after application
# Experimental: as §3
# wild oat (Avena fatua) [7] = test: Test Example 7: foliar spray, herbicidal activity index; format: in vivo; conditions: 4 days after application, index 0-10
# Experimental: as §1, with “compound 1-45” for “compound 1-67”, “and B” for “and A”, “of 1000 liters” for “of 1000liters”, “Table 13,” for “Table 12,”
# as §2
# [8] = test system: large crabgrass (Digitaria sanguinalis); test: as above; format: in vivo; design: key: “0” means that there was no or little difference in the degree of germination or growth between the treated and the untreated tested plants at the time of examination; “10” means that the test plants died complete or their germination or growth was completely inhibited; conditions: 4 days after application, index 0-10
# Experimental: as §1, with “compound 1-45” for “compound 1-67”, “and B” for “and A”, “of 1000 liters” for “of 1000liters”, “Table 13,” for “Table 12,”
# as §2
# [9] = test system: giant foxtail (Setaria faberi); test: as above; format: in vivo; design: key: “0” means that there was no or little difference in the degree of germination or growth between the treated and the untreated tested plants at the time of examination; “10” means that the test plants died complete or their germination or growth was completely inhibited; conditions: 4 days after application, index 0-10
# Experimental: as §1, with “compound 1-45” for “compound 1-67”, “and B” for “and A”, “of 1000 liters” for “of 1000liters”, “Table 13,” for “Table 12,”
# as §2
# [10] = test system: barnyardgrass (Echinochloa crus-galli); test: as above; format: in vivo; design: key: “0” means that there was no or little difference in the degree of germination or growth between the treated and the untreated tested plants at the time of examination; “10” means that the test plants died complete or their germination or growth was completely inhibited; conditions: 4 days after application, index 0-10
# Experimental: as §1, with “compound 1-45” for “compound 1-67”, “and B” for “and A”, “of 1000 liters” for “of 1000liters”, “Table 13,” for “Table 12,”
# as §2
# [11] = test system: velvetleaf (Abutilon theophrasti); test: Test Example 2: soil surface treatment of field; format: in vivo; conditions: soil surface spray, dosage 500 g/ha, 19 days after application
# Text: (§4) A cylindrical plastic pot having a diameter of 10 cm and a depth of 10 cm was filled with soil and then seeded with ivyleaf morningglory (Ipomoea hederacea) and velvetleaf (Abutilon theophrasti). Then, each of the compounds 1-2, 1-42, 1-48, 2-2, 2-7, 2-42, 2-45, 3-2, 3-12, 4-7, 4-85, 5-12-R, 5-12-S, 5-17, 6-2, 7-2, 7-6, 7-8, 7-12, 7-48, 7-50, 7-84, 7-118, 7-119, 7-125, 9-7, 9-27 and 9-45 was formulated into an emulsifiable concentrate according to Formulation Example 2 and then diluted to the prescribed amount with water, and the dilution was uniformly sprayed over the surface of the soil with a sprayer at a rate of 1000 liters per hectare. After the application, the test plants were grown in the greenhouse for 19 days, and the herbicidal activity was examined.
# [12] = test system: ivyleaf morningglory (Ipomoea hederacea); test: Test Example 2: soil surface treatment of field; format: in vivo; conditions: soil surface spray, dosage 500 g/ha, 19 days after application
# Text: as §4
Compound,Herbicidal activity GF ([1]; dosage 32 g/ha),Herbicidal activity GF ([1]; dosage 125 g/ha),Herbicidal activity B ([2]; dosage 32 g/ha),Herbicidal activity B ([2]; dosage 125 g/ha),Herbicidal activity LC ([3]; dosage 32 g/ha),Herbicidal activity LC ([3]; dosage 125 g/ha),Herbicidal activity W (wild oat (Avena fatua) [4]; dosage 32 g/ha),Herbicidal activity W (wild oat (Avena fatua) [4]; dosage 125 g/ha),growth of velvetleaf (herbicidal activity) [5],growth of ivyleaf morningglory (herbicidal activity) [6],Herbicidal activity W (wild oat (Avena fatua) [7]; dosage 32 g/ha),Herbicidal activity W (wild oat (Avena fatua) [7]; dosage 125 g/ha),Herbicidal activity LC ([8]; dosage 32 g/ha),Herbicidal activity LC ([8]; dosage 125 g/ha),Herbicidal activity GF ([9]; dosage 32 g/ha),Herbicidal activity GF ([9]; dosage 125 g/ha),Herbicidal activity B ([10]; dosage 32 g/ha),Herbicidal activity B ([10]; dosage 125 g/ha),further results
"COc1cc(OC)nc(Nc2cc(-n3c(=O)cc(C(F)(F)F)n(C)c3=O)c(F)cc2Cl)n1 [A, reference compound]",4,5,4,4,6,8,2,3,–,–,–,–,–,–,–,–,–,–,–
"COC(=O)COc1cc(OC)nc(Oc2cc(-n3c(=O)cc(C(F)(F)F)n(C)c3=O)c(F)cc2Cl)n1 [Compound 1-45, 2-{2-chloro-4-fluoro-5-[3-methyl-2,6-dioxo-4-(trifluoromethyl)-1,2,3,6-tetrahydropyrimidin-1-yl]phenoxy}-6-methoxy-4-(methoxycarbonyl)methoxypyrimidine]",–,–,–,–,–,–,–,–,completely controlled,completely controlled,9,9,10,10,10,10,10,10,–
"COC(=O)COc1cc(OC)nc(Nc2cc(-n3c(=O)cc(C(F)(F)F)n(C)c3=O)c(F)cc2Cl)n1 [Compound 1-67, 2-{2-chloro-4-fluoro-5-[3-methyl-2,6-dioxo-4-(trifluoromethyl)-1,2,3,6-tetrahydropyrimidin-1-yl]phenylamino}-6-methoxy-4-(methoxycarbonyl)methoxypyrimidine]",10,10,10,10,9,9,8,9,–,–,–,–,–,–,–,–,–,–,–
"COC(=O)COc1ncccc1Oc1cc(-n2c(=O)cc(C(F)(F)F)n(C)c2=O)c(F)cc1C#N [Compound 9-27, 3-{2-cyano-4-fluoro-5-[3-methyl-2,6-dioxo-4-(trifluoromethyl)-1,2,3,6-tetrahydropyrimidin-1-yl]phenoxy}-2-(methoxycarbonyl)methoxypyridine]",–,–,–,–,–,–,–,–,completely controlled,completely controlled,–,–,–,–,–,–,–,–,growth of velvetleaf (herbicidal activity) [11]: completely controlled; growth of ivyleaf morningglory (herbicidal activity) [12]: completely controlled; melting point: 173.1 °C
"COc1nc(OC)nc(Oc2cc(-n3c(=O)cc(C(F)(F)F)n(C)c3=O)c(F)cc2Cl)n1 [B, reference compound]",–,–,–,–,–,–,–,–,–,–,6,9,8,8,6,8,6,8,–
